Results on 16 compounds are retold here after US8557864B2, “Agent having neurotrophic factor-like activity” (Nagoya Industrial Science Research Institute, priority 2007, dated 2013).

The subject of series [1] is MAP kinases. Description: Measurement of activation of MAP kinases in cultured nerve cells (western immunoblotting). The settings on record: fetal rat cerebral cortex nerve cells, compound 500 μg/ml, 30 minutes, relative to control. The series is classed as cell-based. Here is the method:
Activation of MAP kinases was measured on respective compounds in Table 1 including the compound obtained in Production Example with western immunoblotting as follows. Nerve cells were dispersed from a cerebral cortex of a 17-day-old fetal rat and the nerve cells were cultured in a Dulbecco's modified eagle medium (DMEM) containing 5%; fetal bovine serum for 1 day. A culture solution was exchanged to a serum-free medium (B27 supplement added Neurobasal, Invitrogen Corporation), and the nerve cells were cultured in a culture petri dish coated with polyornithine at a density of 20,000 to 40,000 cells/cm^2. Three days later, each of the compounds in Table 1 was added thereto, and culture for 30 minutes was continued. Then, cells were recovered on ice with a solution of a Tris-HCL buffer as a base containing a phosphatase inhibitor. The protein concentration of the obtained cell extraction was determined using a BCA Protein Assay Kit (TAKARABIO INC.), a constant amount (3 μg for MAP kinase measurement, 5 μg for phosphorylated MAP kinase measurement) of the protein was electrophoresed with a polyacrylic amide gel. The protein was transcribed to a PVDF membrane from the gel after electrophoresis, and western immunoblotting was carried out using the primary antibodies: an anti-MAP kinase antibody (Cell Signaling Technology, Inc.) and an antiphosphorylated MAP kinase antibody (Cell Signaling Technology, Inc.), respectively. Subsequently, an enzyme activity was subjected to color development by being reacted with the secondary antibody: an alkaline phosphatase labeled anti-rabbit IgG antibody (Promega KK) to measure MAP kinases and phosphorylated MAP kinases. In addition, each compound was dissolved in 0.7% DMSO and adjusted to have a concentration of 500 μg/ml. A control was added with a phosphoric acid buffer containing 0.1% DMSO in the same amount as the compound.
The above obtained concentration measurement of the electrophoresis gel band was digitalized by calculating an intensity with Image J (BioArts International, Inc.). The numerical value of MAP kinases of each compound was divided by the numerical value of the control's MAP kinases, and the numerical value of phosphorylated MAP kinases of each compound was divided by the numerical value of the control's phosphorylated MAP kinases to find a ratio of the MAP kinases of each compound to the control and a ratio of the phosphorylated MAP kinases of the each compound to the control. Then, the obtained ratio of the phosphorylated MAP kinases to the control was divided by the obtained ratio of the MAP kinases to the control to find a ratio of the phosphorylated MAP kinases to the MAP kinases and graphs were formed and shown in FIGS. 1 to 3. Compound 1, compound 6, compound 11, compound 16, compound 21 and compound 36 in Table 1 were used from products made by Wako Pure Chemical Industries, Ltd.
On the technique in general: In western blotting, separated proteins are transferred to a membrane and probed.

Series [2] deals with mice. Description: Voluntary alternation behavior test (Y-maze test) of mice administered with trimethyltin. The series is classed as in vivo. Conditions: TMT 2 mg/kg weight intraperitoneally. Here is the method: The voluntary alternation behavior test (Y-maze test) is one kind of a behavior test using a Y-shaped maze constituted with three arms. First, a mouse is placed on the tip of one arm out of the three arms, letting the mouse freely explore in the maze over 8 minutes, and arms where the mouse transferred are recorded in order. Then, the number of times of transferring to each arm (total arm selection number (total arm entries)) and the number of sequentially selecting three different arms (number of alternation behavior (number of spontaneous behavior)) are counted.
Trimethyltin (hereinafter referred to as “TMT”) is an organic metal compound having neurotoxicity, and acute nerve cell death is cased particularly in granular nerve cells of the hippocampus dentate gyrus, which thus affects memory and learning abilities of a mouse.
The voluntary alternation tests (Y-maze tests) were performed on 1) test groups to which the compound 8 was singly administered and 2) test groups to which TMT and the compound 8 were administered. In the test groups to which the compound 8 was singly administered, the compound 8 was dissolved in 0.1% DMSO to adjust a concentration so as to have each of the doses of 100 and 500 μg/kg and intraperitoneally injected to 6 mice in every administration example each in a dose of 0.25 mL. In 0 μg/kg weight administration examples of controls, 0.25 mL of a phosphoric acid buffer containing 0.1% DMSO was intraperitoneally injected in each time. The voluntary alternation tests (Y-maze tests) were performed on each of the administration groups after the elapse of 2 hours from intraperitoneal administration. In the test group in which TMT and the compound 8 were administered, TMT (2 mg/kg weight) was intraperitoneally administered to a mouse, and the compound 8 was intraperitoneally administered in the same manner as the test groups in which the compound 8 was singly administered after 2 days have passed, and the voluntary alternation test (Y-maze test) was performed after the elapse of 2 hours. FIG. 32 show the results. Significance tests were performed in a Turkey's test (*, ##) and a Student's t-test (++). “DAEE” denotes the compound 8.

The subject of series [3] is mice under chronic mild stress. Description: Tail suspension test comparing compound 8 and fluvoxamine after chronic mild stress. The series is classed as in vivo. Conditions: fluvoxamine 1000 μg/kg intraperitoneally once per day. Here is the method:
7-week-old male ddY strain mice fed in one cage for 4 mice were first subjected to forced swimming for 15 minutes in the same manner as stress in Example 2 (behavior test of mice under stress) (1) described in the paragraph [0063] in the specification. Then, stress for 1 week using 3 kinds of cages was regarded as 1 cycle, and the stress was applied for 3 cycles (3 weeks) and chronic mild stress (CMS) was applied. The compound 8 and fluvoxamine were administered to mice immediately after stress in Exp. 1, 1 week after stress in Exp. 2, and 2 weeks after stress in Exp. 3, respectively, and tail suspension tests were carried out on the respective test groups. In each test group, the compound 8 was adjusted in concentration so as to have each of the doses of […] and fluvoxamine was adjusted in concentration so as to have a dose of 1000 μg/kg, by dissolving in 0.1% DMSO, and each dose of the compound 8 and fluvoxamine were intraperitoneally injected to mice once per day from the time immediately after stress. Further, to 7-week-old male ddY strain mice fed in one cage for 4 mice without stress, the compound 8 and fluvoxamine were administered to carry out the tail suspension tests in the same manner as the stressed mice. FIG. 31 show the result. A significance test was performed in a Student's t-test (*). […] “DAEE” denotes the compound 8 and “Flu” denotes fluvoxamine.

With `CCCCCCCCCC(=O)OC` [Compound 2, decanoic acid methyl ester], the “ratio of phosphorylated MAP kinases to MAP kinases” value (“ratio of phosphorylated MAP kinases” below) in series [1] is reported as “high activities”.

As to `CCCCCCCCCC(=O)OCC` [Compound 3, decanoic acid ethyl ester], the “ratio of phosphorylated MAP kinases” value in series [1] is reported as “high activities”.

Regarding `CCCCCCC/C=C/C(=O)O` [Compound 6, trans-2-decenoic acid], the “ratio of phosphorylated MAP kinases” value in series [1] is listed as “high activities”.

On to `CCCCCCC/C=C/C(=O)OC` [Compound 7, trans-2-decenoic acid methyl ester], for which the figures for the “ratio of phosphorylated MAP kinases” value in series [1] and in series [1] (listed as trans-2-decenic acid methyl ester) were “twice or more” and 6 times, respectively.

Take `C=CCCCCCCCC(=O)OC` [Compound 12, trans-9-decenoic acid methyl ester]: the “ratio of phosphorylated MAP kinases” value in series [1] is “high activities”.

With `C=CCCCCCCCC(=O)OCC` [Compound 13, trans-9-decenoic acid ethyl ester], the “ratio of phosphorylated MAP kinases” value in series [1] is on record as “high activities”.

With `C=CCCCCCCCCC(=O)OC` [Compound 22, trans-10-undecenoic acid methyl ester], the “ratio of phosphorylated MAP kinases” value in series [1] is reported as “high activities”.

Regarding `C=CCCCCCCCCC(=O)OCC` [Compound 23, trans-10-undecenoic acid ethyl ester], in series [1], the “ratio of phosphorylated MAP kinases” value is reported as “high activities”.

Turning to `CCCCCCC/C=C/COC(=O)/C=C/CCCCCCC` [Compound 47, trans-2-decenoic acid-trans-2-decenyl ester], the “ratio of phosphorylated MAP kinases” value in series [1] is “twice or more”.

For `CCCCCCC/C=C/C(=O)OC1CCCCC1` [Compound 48, trans-2-decenoic acid cyclohexyl ester], in series [1], the “ratio of phosphorylated MAP kinases” value is “twice or more”.

Consider `CCCCCCC/C=C/C(=O)OCCCCCCCC` [Compound 53, trans-2-decenoic acid octyl ester], for which the “ratio of phosphorylated MAP kinases” value in series [1] is “twice or more”.

With `CCCCCCC/C=C/C(=O)OC(C)C` [Compound 54, trans-2-decenoic acid isopropyl ester], in series [1], the “ratio of phosphorylated MAP kinases” value is “twice or more”.

For the compound `CCOC(=O)/C=C(\C)CCC=C(C)C` [Compound 77, geranic acid ethyl ester], the “ratio of phosphorylated MAP kinases” value in series [1] is given as “high activities”.

Take `CCOC(=O)CC(C)CCCC(C)C` (stereo not drawn) [Compound 78, 3,7-dimethyloctanoic acid ethyl ester]: the “ratio of phosphorylated MAP kinases” value in series [1] is “high activities”.

Take `[CH3][Sn+]([CH3])[CH3]` [TMT, Trimethyltin, reference compound]: the “voluntary alternation behavior after TMT treatment” value in series [2] is recorded as “significantly decreased”.

With `COCCCC/C(=N\OCCN)c1ccc(C(F)(F)F)cc1` [fluvoxamine], the “effect on depressive symptom (immobility time)” value in series [3] (Exp. 2 (1 week after stress), compound 8 500 μg/kg) is listed as “an effect could not be recognized”; in series [3] (Exp. 3 (2 weeks after stress)), “recognized only in Exp. 3”.
